Experiment: Solubility stated in the introduction
Type: physicochemical

Measured: Solubility

CCOc1cc(CCC(C)=O)ccc1O [4-(3-ethoxy-4-hydroxyphenyl)-2-butanone, 4-(3-Ethoxy-4-hydroxyphenyl)-2-butanone]
very sparingly soluble: in 2-octyldodecanol | in glycerol | in water

Reference: patent publication US20140057997A1, “COSMETIC COMPOSITION COMPRISING 4-(3-ETHOXY-4-HYDROXYPHENYL)-2-BUTANONE AND A LIPOPHILIC SOLVENT” (L'OREAL, priority 2011, published 2014)
